Reference: the NIST ThermoML archive (doi:10.1016/j.jct.2009.03.009)

Tests used:
[1] = xn = mol fraction of the nth substance listed; settings: 313.15 K, 101 kPa, Liquid; for speed of sound: Sing-around technique in a fixed-path interferometer; for mass density: Vibrating tube method
[2] = refractive index (Na D-line) (dimensionless); xn = mol fraction of the nth substance listed; settings: 313.15 K, 101 kPa, Liquid, Standard Abbe refractometry

c1ccccc1 [benzene] + CCCCCC
Settings	mass density, [1] [kg/m3]	refractive index, [2]	speed of sound, [1] [m/s]
x2 = 0	857.4	1.48752	1230
x2 = 0.0378	845.3	1.48075	1214.8
x2 = 0.1009	825.8	1.46941	1191.1
x2 = 0.1986	797.9	1.45313	1158.5
x2 = 0.2979	772.2	1.43818	1129.8
x2 = 0.402	747.7	1.42416	1104.3
x2 = 0.6024	706.3	1.40043	1063.9
x2 = 0.7014	688.2	1.39011	1047.7
x2 = 0.801	671.4	1.38019	1033.2
x2 = 0.9083	654.9	1.37148	1020.2
x2 = 0.9464	649.2	1.36837	1015.9

c1ccccc1 [benzene] + CCCCCCC
Settings	mass density, [1] [kg/m3]	refractive index, [2]	speed of sound, [1] [m/s]
x2 = 0	857.4	1.48752	1230
x2 = 0.0511	840.8	1.47784	1210.9
x2 = 0.1025	825.2	1.46808	1193.3
x2 = 0.1998	798.6	1.45273	1165.5
x2 = 0.2987	775	1.43808	1142.8
x2 = 0.3972	754.3	1.42586	1124.4
x2 = 0.5013	734.9	1.4148	1108.9
x2 = 0.5998	718.5	1.40552	1096.8
x2 = 0.698	703.7	1.39777	1086.4
x2 = 0.8043	689.4	1.38985	1077.8
x2 = 0.9013	677.7	1.38322	1071.6
x2 = 0.9518	671.9	1.38025	1068.8

c1ccccc1 [benzene] + CCCCCCCC
x2 = 0
Settings	mass density [kg/m3]	refractive index	speed of sound [m/s]
[1]	857.4	–	1230
[2]	–	1.48752	–

c1ccccc1 [benzene] + CCCCCCCCC
x2 = 0
Settings	mass density [kg/m3]	refractive index	speed of sound [m/s]
[1]	857.4	–	1230
[2]	–	1.48752	–

CCc1ccccc1 [ethylbenzene] + CCCCCC
Settings	mass density, [1] [kg/m3]	refractive index, [2]	speed of sound, [1] [m/s]
x2 = 0	849.2	1.48426	1256.9
x2 = 0.0465	839.4	1.47929	1243.8
x2 = 0.0771	832.8	1.47548	1235
x2 = 0.201	806.5	1.46016	1200.8
x2 = 0.3015	785.2	1.44756	1173.9
x2 = 0.399	764.7	1.43582	1148.5
x2 = 0.5092	741.7	1.42251	1121.1
x2 = 0.601	722.6	1.41135	1098.9
x2 = 0.7012	702	1.39924	1075.7
x2 = 0.7999	681.9	1.38766	1054.1
x2 = 0.8993	661.7	1.3759	1031.8
x2 = 0.9534	650.8	1.36962	1020.3

CCc1ccccc1 [ethylbenzene] + CCCCCCC
Settings	mass density, [1] [kg/m3]	refractive index, [2]	speed of sound, [1] [m/s]
x2 = 0	849.2	1.48426	1256.9
x2 = 0.0494	838.5	1.47846	1243.9
x2 = 0.1039	826.9	1.47131	1229.8
x2 = 0.2025	806.7	1.4594	1205.9
x2 = 0.3022	786.8	1.44788	1183.7
x2 = 0.4038	767.2	1.43628	1162.6
x2 = 0.5006	749.3	1.42574	1144.6
x2 = 0.6003	731.6	1.41536	1126.9
x2 = 0.7014	714.3	1.40513	1109.8
x2 = 0.8048	697.3	1.39516	1094.8
x2 = 0.9028	681.7	1.38607	1079.9

CCc1ccccc1 [ethylbenzene] + CCCCCCCC
Settings	mass density, [1] [kg/m3]	refractive index, [2]	speed of sound, [1] [m/s]
x2 = 0	849.2	1.48426	1256.9
x2 = 0.0536	837.6	1.47786	1244.1
x2 = 0.1028	827.4	1.47159	1232.9
x2 = 0.2037	807.4	1.45954	1212.1
x2 = 0.3032	788.7	1.4483	1193.8
x2 = 0.4015	771.4	1.43795	1177.7
x2 = 0.5013	755	1.42817	1163.3
x2 = 0.6039	739.2	1.41883	1150.1
x2 = 0.701	725.1	1.41043	1138.8
x2 = 0.7996	711.6	1.40254	1128.3
x2 = 0.9012	698.6	1.39489	1119.3
x2 = 0.9515	692.3	1.39112	1115

CCc1ccccc1 [ethylbenzene] + CCCCCCCCC
x2 = 0
Settings	mass density [kg/m3]	refractive index	speed of sound [m/s]
[1]	849.2	–	1256.9
[2]	–	1.48426	–

CCCCCCC [heptane] + CCc1ccccc1
x1 = 1
Settings	mass density [kg/m3]	refractive index	speed of sound [m/s]
[1]	666.6	–	1066.5
[2]	–	1.37737	–

CCCCCCC [heptane] + Cc1ccccc1
x1 = 1
Settings	mass density [kg/m3]	refractive index	speed of sound [m/s]
[1]	666.6	–	1066.5
[2]	–	1.37737	–

CCCCCCC [heptane] + c1ccccc1
x1 = 1
Settings	mass density [kg/m3]	refractive index	speed of sound [m/s]
[1]	666.6	–	1066.5
[2]	–	1.37737	–

CCCCCC [hexane] + CCc1ccccc1
x1 = 1
Settings	mass density [kg/m3]	refractive index	speed of sound [m/s]
[1]	641.4	–	1010.3
[2]	–	1.36411	–
